Measurements: PubChem BioAssay (NCI)
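A five-concentration, 48-hour dose response in 96-well plates underlies each endpoint, interpolated linearly between surrounding concentrations. TGI: concentration producing complete growth inhibition.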

What was measured:
Test in all cases: DTP human tumour cell line panel, 48 h
SR leukemia = test system: SR leukemia
HCT-116 colon = test system: HCT-116 colon
M14 melanoma = test system: M14 melanoma
HOP-92 NSCLC = test system: HOP-92 NSCLC
LOX IMVI melanoma = test system: LOX IMVI melanoma
RPMI-8226 leukemia = test system: RPMI-8226 leukemia
T-47D breast = test system: T-47D breast
UACC-62 melanoma = test system: UACC-62 melanoma
HS 578T breast = test system: HS 578T breast
SK-MEL-5 melanoma = test system: SK-MEL-5 melanoma
TK-10 renal = test system: TK-10 renal
A549 NSCLC = test system: A549 NSCLC
SF-268 CNS = test system: SF-268 CNS
OVCAR-3 ovarian = test system: OVCAR-3 ovarian
NCI/ADR-RES ovarian = test system: NCI/ADR-RES ovarian
MCF7 breast = test system: MCF7 breast
CAKI-1 renal = test system: CAKI-1 renal
NCI-H226 lung = test system: NCI-H226 lung
SK-MEL-28 melanoma = test system: SK-MEL-28 melanoma
KM12 colon = test system: KM12 colon

`O=c1c2nn3c(=O)n(-c4ccccc4)c(=O)c3nn2c(=O)n1-c1ccccc1` was tested, and the TGI (SR leukemia) was > 100 µM, the TGI (HCT-116 colon) was > 100 µM and the TGI (M14 melanoma) was > 100 µM. For the same compound, the TGI (HOP-92 NSCLC) was > 100 µM, the TGI (LOX IMVI melanoma) was > 100 µM and the TGI (RPMI-8226 leukemia) was > 100 µM. For the same compound, the TGI (T-47D breast) was > 100 µM, the TGI (UACC-62 melanoma) was > 100 µM and the TGI (HS 578T breast) was > 100 µM. The TGI (SK-MEL-5 melanoma) was > 100 µM, the TGI (TK-10 renal) was > 100 µM and the TGI (A549 NSCLC) was > 100 µM. For the same compound, the TGI (SF-268 CNS) was > 100 µM, the TGI (OVCAR-3 ovarian) was > 100 µM and the TGI (NCI/ADR-RES ovarian) was > 100 µM. The TGI (MCF7 breast) was > 100 µM, the TGI (CAKI-1 renal) was > 100 µM and the TGI (NCI-H226 lung) was > 100 µM. For the same compound, the TGI (SK-MEL-28 melanoma) was > 100 µM and the TGI (KM12 colon) was > 100 µM.
In the case of `O=c1cc(NNc2ccccc2)[nH]c(=S)[nH]1`, the TGI (SR leukemia) is reported as 70.3 µM, the TGI (HCT-116 colon) is reported as 53.9 µM and the TGI (M14 melanoma) is reported as > 100 µM. For the same compound, the TGI (HOP-92 NSCLC) was > 100 µM, the TGI (LOX IMVI melanoma) was 31.3 µM and the TGI (RPMI-8226 leukemia) was 58.6 µM. The TGI (T-47D breast) was > 100 µM, the TGI (UACC-62 melanoma) was > 100 µM and the TGI (HS 578T breast) was > 100 µM. For the same compound, the TGI (SK-MEL-5 melanoma) was > 100 µM, the TGI (TK-10 renal) was 90.6 µM and the TGI (A549 NSCLC) was > 100 µM. For the same compound, the TGI (SF-268 CNS) was > 100 µM, the TGI (OVCAR-3 ovarian) was 31.4 µM and the TGI (NCI/ADR-RES ovarian) was > 100 µM. The TGI (MCF7 breast) was > 100 µM, the TGI (CAKI-1 renal) was 35.9 µM and the TGI (NCI-H226 lung) was > 100 µM. The TGI (SK-MEL-28 melanoma) was > 100 µM and the TGI (KM12 colon) was > 100 µM.
With `NC(=O)NNc1nc2ccccc2c(=O)n1NC(=O)C(=O)Nc1ccc(Cl)cc1Cl` the TGI (SR leukemia) was > 100 µM, the TGI (HCT-116 colon) was > 100 µM and the TGI (M14 melanoma) was > 100 µM. For the same compound, the TGI (HOP-92 NSCLC) was > 100 µM, the TGI (LOX IMVI melanoma) was > 100 µM and the TGI (RPMI-8226 leukemia) was > 100 µM. For the same compound, the TGI (T-47D breast) was > 100 µM, the TGI (UACC-62 melanoma) was > 100 µM and the TGI (HS 578T breast) was > 100 µM. For the same compound, the TGI (SK-MEL-5 melanoma) was > 100 µM, the TGI (TK-10 renal) was > 100 µM and the TGI (A549 NSCLC) was > 100 µM. The TGI (SF-268 CNS) was > 100 µM, the TGI (OVCAR-3 ovarian) was > 100 µM and the TGI (NCI/ADR-RES ovarian) was > 100 µM. For the same compound, the TGI (MCF7 breast) was > 100 µM, the TGI (CAKI-1 renal) was > 100 µM and the TGI (NCI-H226 lung) was > 100 µM. For the same compound, the TGI (SK-MEL-28 melanoma) was > 100 µM and the TGI (KM12 colon) was > 100 µM.
In the case of `COc1ccc2c(C)cc(N/N=C(\C)C=O)nc2c1`, the TGI (SR leukemia) is reported as 3.79 µM, the TGI (HCT-116 colon) is reported as 26.5 µM and the TGI (M14 melanoma) is reported as 35.2 µM. The TGI (HOP-92 NSCLC) was 25.1 µM, the TGI (LOX IMVI melanoma) was 24 µM and the TGI (RPMI-8226 leukemia) was 22.9 µM. It also gave a TGI (T-47D breast) of 41.3 µM, a TGI (UACC-62 melanoma) of 27.3 µM and a TGI (HS 578T breast) of 43.3 µM. It also gave a TGI (SK-MEL-5 melanoma) of 26.7 µM, a TGI (TK-10 renal) of 30.1 µM and a TGI (A549 NSCLC) of 38.6 µM. It also gave a TGI (SF-268 CNS) of 41.1 µM, a TGI (OVCAR-3 ovarian) of 7.59 µM and a TGI (NCI/ADR-RES ovarian) of 25.7 µM. For the same compound, the TGI (MCF7 breast) was 26 µM, the TGI (CAKI-1 renal) was 27.8 µM and the TGI (NCI-H226 lung) was 24.7 µM. It also gave a TGI (SK-MEL-28 melanoma) of 32.4 µM and a TGI (KM12 colon) of 25.8 µM.
`COc1ccc2nc(N/N=C/C(C)=N/Nc3cc(C)c4cc(OC)ccc4n3)cc(C)c2c1` showed a TGI (SR leukemia) of 12.8 µM, a TGI (HCT-116 colon) of 28.6 µM and a TGI (M14 melanoma) of 80.2 µM. For the same compound, the TGI (HOP-92 NSCLC) was > 89.9 µM, the TGI (LOX IMVI melanoma) was 54.8 µM and the TGI (RPMI-8226 leukemia) was 19.2 µM. The TGI (T-47D breast) was > 73.6 µM, the TGI (UACC-62 melanoma) was 64.6 µM and the TGI (HS 578T breast) was 68.8 µM. It also gave a TGI (SK-MEL-5 melanoma) of 72.8 µM, a TGI (TK-10 renal) of 69.4 µM and a TGI (A549 NSCLC) of 45.7 µM. It also gave a TGI (SF-268 CNS) of 60.8 µM, a TGI (OVCAR-3 ovarian) of 53.6 µM and a TGI (NCI/ADR-RES ovarian) of 46.1 µM. It also gave a TGI (MCF7 breast) of 29.8 µM, a TGI (CAKI-1 renal) of 76.1 µM and a TGI (NCI-H226 lung) of 53.3 µM. For the same compound, the TGI (SK-MEL-28 melanoma) was 74.5 µM and the TGI (KM12 colon) was 44.1 µM.
For `C=CC/C=C/Cc1csc(C(C)(C)C(O)C/C=C/C(=C)CCNC(=O)OC)n1` (stereo not given), the TGI (SR leukemia) was > 100 µM, the TGI (HCT-116 colon) was > 100 µM and the TGI (M14 melanoma) was > 100 µM. The TGI (HOP-92 NSCLC) was > 100 µM, the TGI (LOX IMVI melanoma) was > 100 µM and the TGI (RPMI-8226 leukemia) was > 100 µM. The TGI (T-47D breast) was > 100 µM, the TGI (UACC-62 melanoma) was > 100 µM and the TGI (HS 578T breast) was > 100 µM. For the same compound, the TGI (SK-MEL-5 melanoma) was > 60.5 µM, the TGI (TK-10 renal) was > 100 µM and the TGI (A549 NSCLC) was > 100 µM. For the same compound, the TGI (SF-268 CNS) was > 100 µM, the TGI (OVCAR-3 ovarian) was > 100 µM and the TGI (NCI/ADR-RES ovarian) was > 100 µM. For the same compound, the TGI (MCF7 breast) was > 100 µM, the TGI (CAKI-1 renal) was > 100 µM and the TGI (NCI-H226 lung) was > 100 µM. The TGI (SK-MEL-28 melanoma) was > 100 µM and the TGI (KM12 colon) was > 100 µM.
In the case of `N=c1oc2c(Cl)cc(Cl)cc2cc1C(=O)Nc1cccc2ccccc12`, the TGI (SR leukemia) is reported as > 21.1 µM, the TGI (HCT-116 colon) is reported as 40.6 µM and the TGI (M14 melanoma) is reported as > 100 µM. The TGI (HOP-92 NSCLC) was 97.7 µM, the TGI (LOX IMVI melanoma) was > 24 µM and the TGI (RPMI-8226 leukemia) was 53.3 µM. The TGI (T-47D breast) was 25.2 µM, the TGI (UACC-62 melanoma) was > 100 µM and the TGI (HS 578T breast) was > 53.2 µM. The TGI (SK-MEL-5 melanoma) was > 100 µM, the TGI (TK-10 renal) was 4.71 µM and the TGI (A549 NSCLC) was > 100 µM. The TGI (SF-268 CNS) was > 100 µM, the TGI (OVCAR-3 ovarian) was > 40 µM and the TGI (NCI/ADR-RES ovarian) was 28.2 µM. The TGI (MCF7 breast) was > 100 µM, the TGI (CAKI-1 renal) was > 67.7 µM and the TGI (NCI-H226 lung) was 66.2 µM. The TGI (SK-MEL-28 melanoma) was > 100 µM and the TGI (KM12 colon) was > 100 µM.
`c1ccc([P+](Cc2ccc(C[P+](c3ccccc3)(c3ccccc3)c3ccccc3)cc2)(c2ccccc2)c2ccccc2)cc1` was tested, and the TGI (SR leukemia) was > 100 µM, the TGI (HCT-116 colon) was > 100 µM and the TGI (M14 melanoma) was > 100 µM. For the same compound, the TGI (HOP-92 NSCLC) was 93.4 µM, the TGI (LOX IMVI melanoma) was 50 µM and the TGI (RPMI-8226 leukemia) was > 100 µM. For the same compound, the TGI (T-47D breast) was > 100 µM, the TGI (UACC-62 melanoma) was > 100 µM and the TGI (HS 578T breast) was > 100 µM. For the same compound, the TGI (SK-MEL-5 melanoma) was 90.1 µM, the TGI (TK-10 renal) was > 100 µM and the TGI (A549 NSCLC) was > 100 µM. The TGI (SF-268 CNS) was > 100 µM, the TGI (OVCAR-3 ovarian) was > 100 µM and the TGI (NCI/ADR-RES ovarian) was > 100 µM. The TGI (MCF7 breast) was > 100 µM, the TGI (CAKI-1 renal) was > 100 µM and the TGI (NCI-H226 lung) was > 100 µM. For the same compound, the TGI (SK-MEL-28 melanoma) was > 100 µM and the TGI (KM12 colon) was > 100 µM.
`COC(=O)C1=CC2CCCC1(O)C(C(C)=O)C2` (stereo not given) was tested, and the TGI (SR leukemia) was > 81.5 µM, the TGI (HCT-116 colon) was > 100 µM and the TGI (M14 melanoma) was > 100 µM. For the same compound, the TGI (HOP-92 NSCLC) was > 100 µM, the TGI (LOX IMVI melanoma) was 34.3 µM and the TGI (RPMI-8226 leukemia) was 69.6 µM. For the same compound, the TGI (T-47D breast) was > 100 µM, the TGI (UACC-62 melanoma) was > 100 µM and the TGI (HS 578T breast) was > 100 µM. The TGI (SK-MEL-5 melanoma) was > 100 µM, the TGI (TK-10 renal) was > 100 µM and the TGI (A549 NSCLC) was > 100 µM. For the same compound, the TGI (SF-268 CNS) was > 67.3 µM, the TGI (OVCAR-3 ovarian) was > 100 µM and the TGI (NCI/ADR-RES ovarian) was > 100 µM. For the same compound, the TGI (MCF7 breast) was > 100 µM, the TGI (CAKI-1 renal) was > 100 µM and the TGI (NCI-H226 lung) was > 100 µM. The TGI (SK-MEL-28 melanoma) was > 100 µM and the TGI (KM12 colon) was > 100 µM.
